Assay results: patent US12415816B2, “Benzothiazole derivatives and 7-aza-benzothiazole derivatives as janus kinase 2 inhibitors and uses thereof” (Dana-Farber Cancer Institute, Inc., priority 2018, dated 2025)
pIC50: −log10 of the molar value.

Columns and labels:
PFTAIRE2 = PFTAIRE2 (Homo sapiens (Human), UniProt Q96Q40); experiment: KINOMEscan kinase selectivity profiling; format: binding; conditions: read-out: Ambit KINOMEscan of compound I-5 at 10 μM (percent control %)
ITK = ITK (Homo sapiens (Human), UniProt Q08881); experiment: KINOMEscan kinase selectivity profiling; format: binding; conditions: read-out: Ambit KINOMEscan of compound I-5 at 10 μM (percent control %)
CDC2L2 = CDC2L2 (Homo sapiens (Human), UniProt Q9UQ88); experiment: KINOMEscan kinase selectivity profiling; format: binding; conditions: read-out: Ambit KINOMEscan of compound I-5 at 10 μM (percent control %)
TIE2 = TIE2 (Homo sapiens (Human), UniProt Q02763); experiment: KINOMEscan kinase selectivity profiling; format: binding; conditions: read-out: Ambit KINOMEscan of compound I-5 at 10 μM (percent control %)
PDGFRB = PDGFRB (Homo sapiens (Human), UniProt P09619); experiment: KINOMEscan kinase selectivity profiling; format: binding; conditions: read-out: Ambit KINOMEscan of compound I-5 at 10 μM (percent control %)
KIT = KIT (Homo sapiens (Human), UniProt P10721); experiment: KINOMEscan kinase selectivity profiling; format: binding; conditions: read-out: Ambit KINOMEscan of compound I-5 at 10 μM (percent control %)
KIT(L576P) = KIT(L576P) (Homo sapiens (Human), UniProt P10721, L576P); experiment: KINOMEscan kinase selectivity profiling; format: binding; conditions: read-out: Ambit KINOMEscan of compound I-5 at 10 μM (percent control %)
MERTK = MERTK (Homo sapiens (Human), UniProt Q12866); experiment: KINOMEscan kinase selectivity profiling; format: binding; conditions: read-out: Ambit KINOMEscan of compound I-5 at 10 μM (percent control %)
JAK2 = JAK2 (Homo sapiens (Human), UniProt O60674); experiment: JAK2 Z-Lyte biochemical assay; conditions: commercial JAK2 Z-Lyte assay from Invitrogen
Method: The JAK2 Z-Lyte biochemical assay was performed according to manufacturer's instructions (Life Technologies).

p38-delta = p38-delta (Homo sapiens (Human), UniProt O15264); experiment: KINOMEscan kinase selectivity profiling; format: binding; conditions: read-out: Ambit KINOMEscan of compound I-5 at 10 μM (percent control %)
INSRR = INSRR (Homo sapiens (Human), UniProt P14616); experiment: KINOMEscan kinase selectivity profiling; format: binding; conditions: read-out: Ambit KINOMEscan of compound I-5 at 10 μM (percent control %)
ABL1(T315I) = ABL1(T315I) (Homo sapiens (Human), UniProt P00519, T315I); experiment: KINOMEscan kinase selectivity profiling; format: binding; conditions: read-out: Ambit KINOMEscan of compound I-5 at 10 μM (percent control %)
FES = FES (Homo sapiens (Human), UniProt P07332); experiment: KINOMEscan kinase selectivity profiling; format: binding; conditions: read-out: Ambit KINOMEscan of compound I-5 at 10 μM (percent control %)
EPHB2 = EPHB2 (Homo sapiens (Human), UniProt P29323); experiment: KINOMEscan kinase selectivity profiling; format: binding; conditions: read-out: Ambit KINOMEscan of compound I-5 at 10 μM (percent control %)
TRKB = TRKB (Homo sapiens (Human), UniProt Q16620); experiment: KINOMEscan kinase selectivity profiling; format: binding; conditions: read-out: Ambit KINOMEscan of compound I-5 at 10 μM (percent control %)
PFTK1 = PFTK1 (Homo sapiens (Human), UniProt O94921); experiment: KINOMEscan kinase selectivity profiling; format: binding; conditions: read-out: Ambit KINOMEscan of compound I-5 at 10 μM (percent control %)
BRAF(V600E) = BRAF(V600E) (Homo sapiens (Human), UniProt P15056, V600E); experiment: KINOMEscan kinase selectivity profiling; format: binding; conditions: read-out: Ambit KINOMEscan of compound I-5 at 10 μM (percent control %)
PDGFRA = PDGFRA (Homo sapiens (Human), UniProt P16234); experiment: KINOMEscan kinase selectivity profiling; format: binding; conditions: read-out: Ambit KINOMEscan of compound I-5 at 10 μM (percent control %)
ABL1(Q252H) = ABL1(Q252H) (Homo sapiens (Human), UniProt P00519, Q252H); experiment: KINOMEscan kinase selectivity profiling; format: binding; conditions: read-out: Ambit KINOMEscan of compound I-5 at 10 μM (percent control %)
TAK1 = TAK1 (Homo sapiens (Human), UniProt O43318); experiment: KINOMEscan kinase selectivity profiling; format: binding; conditions: read-out: Ambit KINOMEscan of compound I-5 at 10 μM (percent control %)
TIE1 = TIE1 (Homo sapiens (Human), UniProt P35590); experiment: KINOMEscan kinase selectivity profiling; format: binding; conditions: read-out: Ambit KINOMEscan of compound I-5 at 10 μM (percent control %)
CDKL3 = CDKL3 (Homo sapiens (Human), UniProt Q8IVW4); experiment: KINOMEscan kinase selectivity profiling; format: binding; conditions: read-out: Ambit KINOMEscan of compound I-5 at 10 μM (percent control %)
MAP4K2 = MAP4K2 (Homo sapiens (Human), UniProt Q12851); experiment: KINOMEscan kinase selectivity profiling; format: binding; conditions: read-out: Ambit KINOMEscan of compound I-5 at 10 μM (percent control %)
EPHB4 = EPHB4 (Homo sapiens (Human), UniProt P54760); experiment: KINOMEscan kinase selectivity profiling; format: binding; conditions: read-out: Ambit KINOMEscan of compound I-5 at 10 μM (percent control %)
RET(V804M) = RET(V804M) (Homo sapiens (Human), UniProt P07949, V804M); experiment: KINOMEscan kinase selectivity profiling; format: binding; conditions: read-out: Ambit KINOMEscan of compound I-5 at 10 μM (percent control %)
TAOK3 = TAOK3 (Homo sapiens (Human), UniProt Q9H2K8); experiment: KINOMEscan kinase selectivity profiling; format: binding; conditions: read-out: Ambit KINOMEscan of compound I-5 at 10 μM (percent control %)
RET(M918T) = RET(M918T) (Homo sapiens (Human), UniProt P07949, M918T); experiment: KINOMEscan kinase selectivity profiling; format: binding; conditions: read-out: Ambit KINOMEscan of compound I-5 at 10 μM (percent control %)
RET(V804L) = RET(V804L) (Homo sapiens (Human), UniProt P07949, V804L); experiment: KINOMEscan kinase selectivity profiling; format: binding; conditions: read-out: Ambit KINOMEscan of compound I-5 at 10 μM (percent control %)
LYN = LYN (Homo sapiens (Human), UniProt P07948); experiment: KINOMEscan kinase selectivity profiling; format: binding; conditions: read-out: Ambit KINOMEscan of compound I-5 at 10 μM (percent control %)
HPK1 = HPK1 (Homo sapiens (Human), UniProt Q92918); experiment: KINOMEscan kinase selectivity profiling; format: binding; conditions: read-out: Ambit KINOMEscan of compound I-5 at 10 μM (percent control %)
RIPK1 = RIPK1 (Homo sapiens (Human), UniProt Q13546); experiment: KINOMEscan kinase selectivity profiling; format: binding; conditions: read-out: Ambit KINOMEscan of compound I-5 at 10 μM (percent control %)
EPHA8 = EPHA8 (Homo sapiens (Human), UniProt P29322); experiment: KINOMEscan kinase selectivity profiling; format: binding; conditions: read-out: Ambit KINOMEscan of compound I-5 at 10 μM (percent control %)
FGR = FGR (Homo sapiens (Human), UniProt P09769); experiment: KINOMEscan kinase selectivity profiling; format: binding; conditions: read-out: Ambit KINOMEscan of compound I-5 at 10 μM (percent control %)
CSF1R = CSF1R (Homo sapiens (Human), UniProt P07333); experiment: KINOMEscan kinase selectivity profiling; format: binding; conditions: read-out: Ambit KINOMEscan of compound I-5 at 10 μM (percent control %)
EPHB1 = EPHB1 (Homo sapiens (Human), UniProt P54762); experiment: KINOMEscan kinase selectivity profiling; format: binding; conditions: read-out: Ambit KINOMEscan of compound I-5 at 10 μM (percent control %)
EPHA6 = EPHA6 (Homo sapiens (Human), UniProt Q9UF33); experiment: KINOMEscan kinase selectivity profiling; format: binding; conditions: read-out: Ambit KINOMEscan of compound I-5 at 10 μM (percent control %)
FLT4 = FLT4 (Homo sapiens (Human), UniProt P35916); experiment: KINOMEscan kinase selectivity profiling; format: binding; conditions: read-out: Ambit KINOMEscan of compound I-5 at 10 μM (percent control %)
CIT = CIT (Homo sapiens (Human), UniProt O14578); experiment: KINOMEscan kinase selectivity profiling; format: binding; conditions: read-out: Ambit KINOMEscan of compound I-5 at 10 μM (percent control %)
RAF1 = RAF1 (Homo sapiens (Human), UniProt P04049); experiment: KINOMEscan kinase selectivity profiling; format: binding; conditions: read-out: Ambit KINOMEscan of compound I-5 at 10 μM (percent control %)
RET = RET (Homo sapiens (Human), UniProt P07949); experiment: KINOMEscan kinase selectivity profiling; format: binding; conditions: read-out: Ambit KINOMEscan of compound I-5 at 10 μM (percent control %)
TRKC = TRKC (Homo sapiens (Human), UniProt Q16288); experiment: KINOMEscan kinase selectivity profiling; format: binding; conditions: read-out: Ambit KINOMEscan of compound I-5 at 10 μM (percent control %)
SRC = SRC (Homo sapiens (Human), UniProt P12931); experiment: KINOMEscan kinase selectivity profiling; format: binding; conditions: read-out: Ambit KINOMEscan of compound I-5 at 10 μM (percent control %)
EPHA4 = EPHA4 (Homo sapiens (Human), UniProt P54764); experiment: KINOMEscan kinase selectivity profiling; format: binding; conditions: read-out: Ambit KINOMEscan of compound I-5 at 10 μM (percent control %)
ABL2 = ABL2 (Homo sapiens (Human), UniProt P42684); experiment: KINOMEscan kinase selectivity profiling; format: binding; conditions: read-out: Ambit KINOMEscan of compound I-5 at 10 μM (percent control %)
KIT(V559D) = KIT(V559D) (Homo sapiens (Human), UniProt P10721, V559D); experiment: KINOMEscan kinase selectivity profiling; format: binding; conditions: read-out: Ambit KINOMEscan of compound I-5 at 10 μM (percent control %)

Chain of ABL2 (P42684 whole entry): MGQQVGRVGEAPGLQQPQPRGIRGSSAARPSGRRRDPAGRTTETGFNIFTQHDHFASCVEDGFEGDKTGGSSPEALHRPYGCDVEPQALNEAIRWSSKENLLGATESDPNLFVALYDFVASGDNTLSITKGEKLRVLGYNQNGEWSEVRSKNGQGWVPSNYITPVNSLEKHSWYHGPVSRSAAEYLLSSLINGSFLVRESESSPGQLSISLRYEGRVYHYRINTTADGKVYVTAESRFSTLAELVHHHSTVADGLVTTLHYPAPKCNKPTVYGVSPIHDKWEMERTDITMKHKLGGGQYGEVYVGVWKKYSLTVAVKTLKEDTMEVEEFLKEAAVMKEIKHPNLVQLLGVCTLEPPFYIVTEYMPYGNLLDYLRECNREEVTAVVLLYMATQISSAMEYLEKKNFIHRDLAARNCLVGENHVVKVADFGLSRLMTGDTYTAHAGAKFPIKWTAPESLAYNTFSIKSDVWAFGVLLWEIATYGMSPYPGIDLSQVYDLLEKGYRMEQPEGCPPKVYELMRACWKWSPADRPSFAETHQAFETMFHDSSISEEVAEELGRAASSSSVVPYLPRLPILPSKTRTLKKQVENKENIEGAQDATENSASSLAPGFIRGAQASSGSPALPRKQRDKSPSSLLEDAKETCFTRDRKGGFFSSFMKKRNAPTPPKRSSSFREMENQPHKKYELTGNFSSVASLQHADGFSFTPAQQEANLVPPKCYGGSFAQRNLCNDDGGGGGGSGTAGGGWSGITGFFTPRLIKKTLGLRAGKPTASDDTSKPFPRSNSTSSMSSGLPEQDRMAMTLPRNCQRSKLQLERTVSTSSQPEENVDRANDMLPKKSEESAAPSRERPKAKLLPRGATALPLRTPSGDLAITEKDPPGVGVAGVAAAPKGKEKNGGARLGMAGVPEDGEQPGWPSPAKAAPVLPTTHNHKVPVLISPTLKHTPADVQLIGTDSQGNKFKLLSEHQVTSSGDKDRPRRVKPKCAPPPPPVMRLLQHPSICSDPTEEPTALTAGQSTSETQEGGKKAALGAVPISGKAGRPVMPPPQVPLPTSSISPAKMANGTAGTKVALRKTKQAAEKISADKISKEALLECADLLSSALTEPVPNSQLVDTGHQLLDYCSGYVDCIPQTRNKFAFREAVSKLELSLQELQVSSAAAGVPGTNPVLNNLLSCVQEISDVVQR
Chain of PFTAIRE2 (Q96Q40 whole entry): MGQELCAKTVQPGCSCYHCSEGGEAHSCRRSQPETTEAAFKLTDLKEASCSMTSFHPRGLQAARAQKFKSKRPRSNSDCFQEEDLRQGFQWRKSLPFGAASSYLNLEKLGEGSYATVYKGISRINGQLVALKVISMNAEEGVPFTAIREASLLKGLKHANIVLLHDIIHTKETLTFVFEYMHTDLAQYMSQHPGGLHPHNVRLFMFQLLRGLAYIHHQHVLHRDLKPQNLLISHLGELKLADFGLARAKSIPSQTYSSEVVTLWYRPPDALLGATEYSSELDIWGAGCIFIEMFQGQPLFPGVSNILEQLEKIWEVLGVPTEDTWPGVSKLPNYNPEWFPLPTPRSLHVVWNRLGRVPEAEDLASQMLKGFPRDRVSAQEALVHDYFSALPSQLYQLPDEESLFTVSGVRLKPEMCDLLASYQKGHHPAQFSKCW
Chain of EPHB4 (P54760 16-987): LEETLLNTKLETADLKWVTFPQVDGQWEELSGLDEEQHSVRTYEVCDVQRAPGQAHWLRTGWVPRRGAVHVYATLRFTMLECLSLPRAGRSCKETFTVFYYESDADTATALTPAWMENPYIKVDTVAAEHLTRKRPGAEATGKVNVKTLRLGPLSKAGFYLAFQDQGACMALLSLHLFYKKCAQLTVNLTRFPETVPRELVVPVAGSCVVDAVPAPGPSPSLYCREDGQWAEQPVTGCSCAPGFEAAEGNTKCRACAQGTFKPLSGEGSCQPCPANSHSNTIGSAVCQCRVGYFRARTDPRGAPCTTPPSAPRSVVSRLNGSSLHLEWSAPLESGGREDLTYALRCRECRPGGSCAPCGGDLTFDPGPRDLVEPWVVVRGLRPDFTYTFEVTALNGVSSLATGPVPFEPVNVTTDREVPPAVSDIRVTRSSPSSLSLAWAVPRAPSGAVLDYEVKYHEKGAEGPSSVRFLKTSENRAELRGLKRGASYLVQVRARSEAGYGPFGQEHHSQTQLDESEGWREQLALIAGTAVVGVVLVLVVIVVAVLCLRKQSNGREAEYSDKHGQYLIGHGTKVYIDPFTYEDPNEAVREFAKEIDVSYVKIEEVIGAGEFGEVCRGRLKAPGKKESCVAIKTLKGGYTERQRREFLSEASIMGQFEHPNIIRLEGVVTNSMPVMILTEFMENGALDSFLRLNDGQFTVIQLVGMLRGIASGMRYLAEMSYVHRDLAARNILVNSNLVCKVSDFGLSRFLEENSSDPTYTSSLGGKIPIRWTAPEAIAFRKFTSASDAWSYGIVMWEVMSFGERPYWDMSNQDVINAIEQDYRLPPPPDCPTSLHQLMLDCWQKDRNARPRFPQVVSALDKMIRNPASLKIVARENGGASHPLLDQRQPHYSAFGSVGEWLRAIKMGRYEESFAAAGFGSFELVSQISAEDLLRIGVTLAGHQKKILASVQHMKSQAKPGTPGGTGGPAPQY
Chain of PFTK1 (O94921 whole entry): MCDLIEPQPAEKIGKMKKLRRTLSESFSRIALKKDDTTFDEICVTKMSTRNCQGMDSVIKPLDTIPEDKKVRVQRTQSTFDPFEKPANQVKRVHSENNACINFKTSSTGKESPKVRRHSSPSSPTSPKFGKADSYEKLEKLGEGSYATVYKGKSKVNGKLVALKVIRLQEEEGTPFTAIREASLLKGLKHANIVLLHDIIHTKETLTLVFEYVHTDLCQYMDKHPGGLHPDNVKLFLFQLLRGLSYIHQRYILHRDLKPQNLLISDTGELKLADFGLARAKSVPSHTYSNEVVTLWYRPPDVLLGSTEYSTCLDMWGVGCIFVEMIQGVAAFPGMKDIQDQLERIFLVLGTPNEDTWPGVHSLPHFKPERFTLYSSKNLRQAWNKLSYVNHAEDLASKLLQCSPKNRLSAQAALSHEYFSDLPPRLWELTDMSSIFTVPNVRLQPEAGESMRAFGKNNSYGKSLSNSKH
Chain of ITK (Q08881 whole entry): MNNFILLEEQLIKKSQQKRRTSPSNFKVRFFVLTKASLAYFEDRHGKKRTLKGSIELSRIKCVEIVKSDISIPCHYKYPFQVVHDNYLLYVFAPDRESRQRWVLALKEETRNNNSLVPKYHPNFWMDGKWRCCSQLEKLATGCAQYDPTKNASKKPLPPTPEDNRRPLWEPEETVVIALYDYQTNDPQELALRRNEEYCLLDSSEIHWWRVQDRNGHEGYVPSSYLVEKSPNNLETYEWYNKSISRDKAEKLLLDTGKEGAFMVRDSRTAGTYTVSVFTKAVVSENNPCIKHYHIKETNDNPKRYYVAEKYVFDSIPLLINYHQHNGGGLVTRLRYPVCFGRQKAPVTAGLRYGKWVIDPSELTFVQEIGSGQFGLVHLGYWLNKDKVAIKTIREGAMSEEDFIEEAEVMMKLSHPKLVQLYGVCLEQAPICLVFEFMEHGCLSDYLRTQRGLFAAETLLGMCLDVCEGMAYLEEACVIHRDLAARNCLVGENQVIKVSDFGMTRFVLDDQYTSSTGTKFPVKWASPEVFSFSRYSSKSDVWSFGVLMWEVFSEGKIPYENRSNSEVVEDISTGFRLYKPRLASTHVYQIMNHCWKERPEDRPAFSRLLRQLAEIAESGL
Chain of HPK1 (Q92918 whole entry): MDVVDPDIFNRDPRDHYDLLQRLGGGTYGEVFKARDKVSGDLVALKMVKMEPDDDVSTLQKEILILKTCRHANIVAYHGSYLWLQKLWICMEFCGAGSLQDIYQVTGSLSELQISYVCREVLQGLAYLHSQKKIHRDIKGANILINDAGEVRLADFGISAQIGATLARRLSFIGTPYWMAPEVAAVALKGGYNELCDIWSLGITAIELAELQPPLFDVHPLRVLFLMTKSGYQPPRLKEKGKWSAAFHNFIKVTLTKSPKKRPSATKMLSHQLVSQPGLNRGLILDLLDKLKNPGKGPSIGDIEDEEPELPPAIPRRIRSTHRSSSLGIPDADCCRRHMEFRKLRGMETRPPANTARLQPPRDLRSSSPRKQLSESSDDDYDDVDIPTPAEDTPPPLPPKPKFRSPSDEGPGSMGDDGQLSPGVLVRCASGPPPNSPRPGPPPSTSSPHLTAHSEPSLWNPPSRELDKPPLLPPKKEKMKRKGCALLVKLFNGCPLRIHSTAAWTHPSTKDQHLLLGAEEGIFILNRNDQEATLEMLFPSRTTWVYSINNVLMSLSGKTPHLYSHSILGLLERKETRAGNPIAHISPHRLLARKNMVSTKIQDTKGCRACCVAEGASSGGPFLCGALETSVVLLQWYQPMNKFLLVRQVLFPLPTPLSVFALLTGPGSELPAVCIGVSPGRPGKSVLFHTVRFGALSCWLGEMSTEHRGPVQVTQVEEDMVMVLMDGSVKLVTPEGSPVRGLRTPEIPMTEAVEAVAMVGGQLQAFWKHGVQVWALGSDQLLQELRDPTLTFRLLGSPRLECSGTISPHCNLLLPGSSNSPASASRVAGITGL
Chain of SRC (P12931 whole entry, looked up): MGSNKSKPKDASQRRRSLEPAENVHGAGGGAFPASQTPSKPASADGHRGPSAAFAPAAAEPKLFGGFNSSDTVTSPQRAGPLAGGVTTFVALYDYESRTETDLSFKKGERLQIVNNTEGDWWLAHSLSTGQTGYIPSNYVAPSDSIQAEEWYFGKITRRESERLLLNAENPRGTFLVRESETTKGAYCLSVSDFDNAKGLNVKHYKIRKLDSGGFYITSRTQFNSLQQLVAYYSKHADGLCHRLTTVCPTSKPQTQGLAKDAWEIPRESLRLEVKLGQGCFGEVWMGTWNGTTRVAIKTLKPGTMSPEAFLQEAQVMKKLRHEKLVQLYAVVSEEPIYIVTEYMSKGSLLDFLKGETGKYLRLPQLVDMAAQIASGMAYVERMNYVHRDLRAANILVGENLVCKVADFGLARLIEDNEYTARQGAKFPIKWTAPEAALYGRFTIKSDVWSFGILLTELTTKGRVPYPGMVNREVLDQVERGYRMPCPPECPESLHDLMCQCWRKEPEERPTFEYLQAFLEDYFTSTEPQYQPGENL

remaining binding at 10 µM (PFTAIRE2): 0%
remaining binding at 10 µM (ITK): 0%
remaining binding at 10 µM (CDC2L2): 0%
remaining binding at 10 µM (TIE2): 0%
remaining binding at 10 µM (PDGFRB): 0%
remaining binding at 10 µM (KIT): 0%
remaining binding at 10 µM (KIT(L576P)): 0%
remaining binding at 10 µM (MERTK): 0%
pIC50 (JAK2): 6.18
remaining binding at 10 µM (p38-delta): 0%
remaining binding at 10 µM (INSRR): 0%
remaining binding at 10 µM (ABL1(T315I)): 0%
remaining binding at 10 µM (FES): 0%
remaining binding at 10 µM (EPHB2): 0%
remaining binding at 10 µM (TRKB): 0%
remaining binding at 10 µM (PFTK1): 0%
remaining binding at 10 µM (BRAF(V600E)): 0%
remaining binding at 10 µM (PDGFRA): 0%
remaining binding at 10 µM (ABL1(Q252H)): 0%
remaining binding at 10 µM (TAK1): 0%
remaining binding at 10 µM (TIE1): 0%
remaining binding at 10 µM (CDKL3): 0%
remaining binding at 10 µM (MAP4K2): 0%
remaining binding at 10 µM (EPHB4): 0%
remaining binding at 10 µM (RET(V804M)): 0%
remaining binding at 10 µM (TAOK3): 0%
remaining binding at 10 µM (RET(M918T)): 0%
remaining binding at 10 µM (RET(V804L)): 0%
remaining binding at 10 µM (LYN): 0%
remaining binding at 10 µM (HPK1): 0%
remaining binding at 10 µM (RIPK1): 0%
remaining binding at 10 µM (EPHA8): 0%
remaining binding at 10 µM (FGR): 0%
remaining binding at 10 µM (CSF1R): 0%
remaining binding at 10 µM (EPHB1): 0%
remaining binding at 10 µM (EPHA6): 0%
remaining binding at 10 µM (FLT4): 0%
remaining binding at 10 µM (CIT): 0%
remaining binding at 10 µM (RAF1): 0%
remaining binding at 10 µM (RET): 0%
remaining binding at 10 µM (TRKC): 0%
remaining binding at 10 µM (SRC): 0%
remaining binding at 10 µM (EPHA4): 0%
remaining binding at 10 µM (ABL2): 0%
remaining binding at 10 µM (KIT(V559D)): 0%
SMILES: CCN1CCN(Cc2cc(NC(=O)c3ccc(C)c(-c4ccc5nc(NC(=O)C6CC6)sc5n4)c3)cc(C(F)(F)F)c2)CC1 [Compound I-5]
